Laboratory results taken from paper PMC5805504 (Oncotarget, 2017).
Read-outs that look alike come from different tables or passages of the source.

Experiments:
[1] = tested on: TGFβ ligand (SMAD2/3-responsive promoter); assay: Cell based luciferase reporter assay (SMAD2/3), TGFβ-stimulated HEK293_SMAD2/3 cells; conditions: Homo sapiens; TGFβ1 2 nM stimulated HEK293_SMAD2/3
in vivo [2] = conditions: female, athymic nu/nu, mouse, plasma, po, 75 mg/kg
Protocol: (§1) For in vivo measurement of tumor cell pSMAD activity, tumors were harvested from mice at the indicated time points post-treatment, snap frozen in liquid nitrogen, then pulverized in lysis buffer [EDTA 5 mM, EGTA 5 mM, sodium pyrophosphate 30 mM, sodium chloride 6.7 mM, sodium fluoride 50 mM, and 1% triton in water, pH 7.4 with protease and phosphatase inhibitors (Sigma, p8340, p5726, p0044) and sodium orthovanadate 2.5 mM]. Protein concentration was estimated with DC protein assay kit (BioRad).
(§2) Percent inhibition of normalized pSMAD2 levels was calculated by first determining the ratio of tSMAD to pSMAD values for the vehicle group. […] Percent inhibition for compound treated groups was determined relative to the minimum pSMAD inhibition of the vehicle group using the formula: [(100- (normalized pSMAD in the experimental treatment group/normalized pSMAD in the vehicle treated group)]. IC50 of pSMAD inhibition was calculated for the data using non-linear regression to fit the standard four parameter logistic model using GraphPad Prism 6.
(§3) Female athymic nu/nu mice or immune competent syngenic BALB/c mice (Charles River or Taconic Farms, respectively, 22 to 28 grams) were maintained in microisolator cages, received food and water ad libitum, and were quarantined for 1 week before experimental manipulation. Sub-confluent Calu6 human non-small cell lung cancer (NSCLC) cells were injected subcutaneously in the flank of nude mice (1x 10^7cells/per animal) in 0.2 mL of culture medium mixed with Matrigel (BD Biosciences, 1:1 v/v). EMT6-LM2 murine triple negative breast cancer tumor cells (5 × 10^5 cells/per animal in the absence of matrigel) were implanted on the flank of BALB/c mice. EMT6-LM2 cells were generated from parental EMT6 cells which were passaged twice from spontaneous lung metastases (LM) following subcutaneous growth. When the tumor volume reached ~250 mm^3, mice were randomized and separated into treatment groups.
(§4) Tumors and plasma were collected 2 hours post dosage for analysis of pSMAD and compound levels.
(§5) Tumors and plasma were collected at the indicated time points (0.5, 1, 1.5, 2, 4, 8, and 16 hours) for analysis of pSMAD and compound levels.
(§6) Percent target inhibition was calculated as described above then was modeled as a function of either dose or plasma concentration.

[3] = tested on: Calu6 human xenograft lung cancer model; assay: Calu6 in vivo xenograft cancer model; set-up: species or system athymic nude mice
Protocol: Female athymic nude mice from Charles River weighing 22 to 26 grams were implanted subcutaneously in the flank with 1×10^7 cells in a 1:1 (v/v) mixture in matrigel. […] Tumor volumes and body weight were determined by electronic caliper every 2 to 3 days. Repeat measures analysis was utilized with log transformed data and the auto-regression (AR) method to determine the overall p-value for galunisertib growth curves relative to the vehicle control in both tumor models. […]

[4] = tested on: TGFβ-responsive p3TP-Lux reporter in Mv1Lu cells; assay: Mink lung epithelial cell p3TP-Lux reporter assay; format: cell-based; conditions: TGFβ1-mediated luciferase production, read-out: IC50 (SE), Mv1Lu p3TP-Lux
Protocol: The TGFβ-responsive p3TP-Lux reporter construct was stably expressed in Mv1Lu mink lung epithelial cells. […] Media was replaced with 0.5% FBS/DMEM and incubated at 37C/5% CO2 for 2 hours. […] The following day, cells were washed with PBS and lysed with lysis buffer by incubating for 20 to 30 minutes at room temperature. Counts were taken on the MicroBeta JET by injecting 50 μL Luciferase Assay Reagent II (PROMEGA), delay for 1 second and count for 5 seconds. Curve fitting utilized a 4-parameter logistic model and absolute IC50 values were reported.

[5] = patients with myelodysplastic syndrome; cited from earlier work
pSMAD in Mv1Lu cells = assay: Endogenous pSMAD inhibition in TGFβ1 stimulated Mv1Lu cells; format: cell-based, mink; conditions: data not shown
in vivo [6] = conditions: female, BALB/c, mouse, plasma, po, 25 mg/kg
Protocol: as §1, §2, §3, §4, §5, §6

pSMAD in 4T1-LP cells = assay: TGFβ1-induced pSMAD inhibition in 4T1-LP cells (ELISA)
Protocol: Next, the samples were homogenized for 15 seconds using Bioruptor® UCD-200 by Diagenode at medium power.
Total and pSMAD2/3 levels were assessed independently on two separate ELISA plates. […] To the pSMAD ELISA plate, 100 μL per well of lysate (ranging from 0.04-0.1 mg total protein) was added to the appropriate wells. To the total SMAD ELISA plate, 10% of the total protein that was added to the pSMAD, was added to the appropriate wells (0.004-0.01 mg protein final). A standard curve was also added to both ELISA plates (p- and tSMAD plates) using recombinant HIS-pSMAD2 protein (Eli Lilly and Company). Plates were incubated overnight then washed four times with wash buffer. […] Following one hour of incubation, plates were washed and developed using 3, 3’, 5, 5’-tetramethylbenzidine substrate (TMB; Surmodics/BioFX #TMBW-0100-01) and absorbance (OD) was read at 450 nm on a plate reader.
Percent inhibition of normalized pSMAD2 levels was calculated by first determining the ratio of tSMAD to pSMAD values for the vehicle group. […]

[7] = second line glioblastoma; cited from earlier work

Structure (SMILES): Cc1cccc(-c2nn3c(c2-c2ccnc4ccc(C(N)=O)cc24)CCC3)n1.O [galunisertib, 4-[2-(6-methylpyridin-2-yl)-5,6-dihydro-4H-pyrrolo[1,2-b]pyrazol-3-yl]quinoline-6-carboxamide monohydrate]
- IC50 [1]: 0.221 µM
- Tmax (in vivo [2]): 30 min
- tumor growth delay ([3]; 75 mg/kg twice daily oral gavage, 500 mm^3 crossing time, p = 0.034): 8.3 ± 2.6 days
- body weight ([3]; 75 mg/kg twice daily, data not shown): No body weight loss
- IC50 ([4]; Mv1Lu): 0.251 µM
- IC50 [4]: 0.25 µM
- clinical activity, phase II [5]: clinical activity
- IC50 (pSMAD in Mv1Lu cells): 0.176 µM
- Tmax (in vivo [6]): 30 min
- IC50 (pSMAD in 4T1-LP cells; Mus musculus, read-out: IC50, pSMAD activity, 4T1-LP, TGFβ1 10 ng/ml, ELISA): 1.77 µM
- IC50 (pSMAD in 4T1-LP cells; read-out: IC50, pSMAD activity, 4T1-LP, TGFβ1 10 ng/ml, ELISA): 1.77 µM
- clinical outcome versus lomustine, phase II [7]: failed to show improvement over lomustine
